Experimental data published in PMC7827628, “Effect of Sulfonamides and Their Structurally Related Derivatives on the Activity of ι-Carbonic Anhydrase from Burkholderia territorii” (International Journal of Molecular Sciences, 2021).
pKi: −log10 of the molar value.

biological target: BteCAι; assay: stopped-flow CO2 hydration assay; format: biochemical, Burkholderia territorii; conditions: CO2 substrate; 20 °C, pH 7.5, 10 mM HEPES (methods give 20 mM TRIS pH 8.3, 20 mM NaClO4); 15 min preincubation

| SMILES | pKi |
| --- | --- |
| CCN[C@H]1CN(CCCOC)S(=O)(=O)c2sc(S(N)(=O)=O)cc21 [BRZ, brinzolamide] | 5.43 |
| NS(=O)(=O)c1nnc(NS(=O)(=O)c2ccccc2)s1 [BZA, benzolamide] | 6.14 |
| Cc1ccc(-c2cc(C(F)(F)F)nn2-c2ccc(S(N)(=O)=O)cc2)cc1 [CLX, celecoxib] | 6.02 |
| NS(=O)(=O)c1cc(Cl)c(Cl)c(S(N)(=O)=O)c1 [DCP, dichlorphenamide] | 6.08 |
| NS(=O)(=O)NCCNc1nonc1/C(=N/O)Nc1ccc(F)c(Br)c1 [EPA, epacadostat] | 6.02 |
| NC(N)=Nc1nc(CSCCC(N)=NS(N)(=O)=O)cs1 [FAM, Famotidine] | 6.03 |
| NS(=O)(=O)c1cc2c(cc1Cl)NCNS2(=O)=O [HCT, hydrochlorothiazide] | 6.11 |
| NS(=O)(=O)c1ccc(S(=O)(=O)Nc2cccc3c(Cl)c[nH]c23)cc1 [IND, Indisulam] | 6.20 |
| O=C1NS(=O)(=O)c2ccccc21 [SAC, Saccharin] | 5.15 |
| CCN1CCCC1CNC(=O)c1cc(S(N)(=O)=O)ccc1OC (centres unmarked) [SLP, Sulpiride] | 6.02 |
| NS(=O)(=O)c1ccc(N2CCCCS2(=O)=O)cc1 [SLT, sulthiame] | 6.02 |
| CC1(C)O[C@@H]2[C@@H](CO[C@@]3(COS(N)(=O)=O)OC(C)(C)O[C@@H]23)O1 [TPM, topiramate] | 6.10 |
| Cc1onc(-c2ccccc2)c1-c1ccc(S(N)(=O)=O)cc1 [VLX, valdecoxib] | 6.03 |
| NS(=O)(=O)Cc1noc2ccccc12 [ZNS, Zonisamide] | 6.09 |
| NCc1ccc(S(N)(=O)=O)cc1 [compound 5, 5] | 7.01 |
| Nc1ccc(S(N)(=O)=O)cc1Br [compound 9, 9] | 7.02 |
| Nc1nccc(Nc2ccc(S(N)(=O)=O)cc2)n1 [compound 19, 19] | 7.03 |
